The first assay has as its system Dog Coronary Artery. Put plainly: Dog coronary artery test: relaxation of KCl-contracted coronary artery rings. The note with it: Canis lupus familiaris, coronary artery rings contracted with 50 mM KCl, 37° C.; IC50 = 50% relaxation; mean values, probit analysis. The format is cell-based. As for the experimental part: Mongrel dogs of either sex and weighing 15 to 30 kg were anesthetized with pentobarbital (35 mg/kg). Each heart was quickly removed through a right thoracotomy and placed in Kreb's bicarbonate solution of the following composition (mM/L): NaCl, 118.2; KCl, 4.6; CaCl2.2H2 O, 1.6; KH2 PO4, 1.2; MgSO4.7H2 O, 1.2; NaHCO3, 24.8; and dextrose, 10.0. The medium was kept at room temperature and saturated with 95% O2 /5% CO2. The left anterior descending and circumflex coronary arteries were isolated and used either immediately or stored overnight at 5° C. Arteries were cut into rings approximately 2 to 3 mm wide, placed on 2 L-shaped hooks and mounted in a 10 ml organ bath by attaching one hook to a stationary glass rod and the other hook to a force-displacement transducer. Tissue medium consisted of Kreb's bicarbonate solution maintained at 37° C. and bubbled with 95 % O2 /5% CO2. Artery rings were equilibrated for 1-2 hours under a resting tension of 3 g. Tissue medium was then changed to one containing 50 mM KCl and 72.8 mM NaCl but otherwise identical to Kreb's bicarbonate solution. After tissues achieved a steady state contractile tension (1-2 hours) a given test agent was added to each bath and concentration-response curves determined. […] At the end of the concentration-response curve, tissue medium was changed to one identical to the 50 mM KCl buffer but containing 2.5 mM EGTA and no CaCl2.2H2 O to obtain complete relaxation of the tissue. Percent relaxation was then determined for each concentration and values producing 50% relaxation (IC50) were estimated using a probit analysis.
For `CCOC(=O)C1=C(C)NC(C)=C(C(=O)OCC)C1c1cc2ccccc2s1` [Example 1, 4-Benzo[b]thien-2-yl-1,4-dihydro-2,6-dimethyl-3,5-pyridinedicarboxylic acid, diethyl ester], the midpoint of inhibition, the IC50, lay at 110000 nM.

Turning to `CCOC(=O)C1=C(C)NC(C)=C(C(=O)OCC)C1c1cc2cnccc2s1` [Example 2, 1,4-Dihydro-2,6-dimethyl-4-(thieno[3,2-c]pyridin-2-yl)-3,5-pyridinedicarboxylic acid, diethyl ester], half-maximal inhibition (IC50) required 10700 nM.

In the case of `CCOC(=O)C1=C(C)NC(C)=C(C(=O)OCC)C1c1csc2ccccc12` [Example 3, 4-Benzo[b]thien-3-yl-1,4-dihydro-2,6-dimethyl-3,5-pyridinedicarboxylic acid, diethyl ester], the IC50 is 79.4 nM.

Compound `CCOC(=O)C1=C(C)NC(C)=C(C(=O)OCC)C1c1csc2ccc(Cl)cc12` [Example 4, 4-(5-Chlorobenzo[b]thien-3-yl)-1,4-dihydro-2,6-dimethyl-3,5-pyridinedicarboxylic acid, diethyl ester] gave an IC50 of 3160 nM.

`CCOC(=O)C1=C(C)NC(C)=C(C(=O)OCC)C1c1c(C)sc2ccncc12` [Example 6, 1,4-Dihydro-2,6-dimethyl-4-(2-methylthieno[3,2-c]pyridin-3-yl)-3,5-pyridinedicarboxylic acid, diethyl ester] showed an IC50 of 398 nM.

`CC1=C(C(=O)OC(C)C)C(c2csc3ccncc23)C(C(=O)OC(C)C)=C(C)N1` [Example 7, 1,4-Dihydro-2,6-dimethyl-4-thieno[3,2-c]pyridin-3-yl-3,5-pyridinedicarboxylic acid, diisopropyl ester] gave an IC50 of 398 nM.

Take `COCCOC(=O)C1=C(C)NC(C)=C(C(=O)OCCOC)C1c1csc2ccncc12` [Example 8, 1,4-Dihydro-2,6-dimethyl-4-thieno[3,2-c]pyridin-3-yl-3,5-pyridinedicarboxylic acid, bis(2-methoxyethyl)ester]: the IC50 is 501 nM.

Consider `COC(=O)C1=C(C)NC(C)=C(C(=O)OC)C1c1csc2ccncc12` [Example 9, 1,4-Dihydro-2,6-dimethyl-4-thieno[3,2-c]pyridin-3-yl-3,5-pyridinedicarboxylic acid, dimethyl ester], for which the half-inhibitory concentration (IC50) is 100 nM.

As for `CCCOC(=O)C1=C(C)NC(C)=C(C(=O)OCCC)C1c1csc2ccncc12` [Example 10, 1,4-Dihydro-2,6-dimethyl-4-thieno[3,2-c]pyridin-3-yl-3,5-pyridinedicarboxylic acid, dipropyl ester], the IC50 is 251 nM.

`CCOC(=O)C1=C(C)NC(C)=C(C(=O)OCC)C1c1csc2cccnc12` [Example 11, 1,4-Dihydro-2,6-dimethyl-4-thieno[3,2-b]pyridin-3-yl-3,5-pyridinedicarboxylic acid, diethyl ester] gave an IC50 of 126 nM.

For the compound `CCOC(=O)C1=C(C)NC(C)=C(C(=O)OCC)C1c1csc2cnccc12` [Example 12, 1,4-Dihydro-2,6-dimethyl-4-thieno[2,3-c]pyridin-3-yl-3,5-pyridinedicarboxylic acid, diethyl ester], inhibition was half-maximal at 40.7 nM (IC50).

`CCOC(=O)C1=C(C)NC(C)=C(C(=O)OCC)C1c1csc2ncccc12` [Example 13, 1,4-Dihydro-2,6-dimethyl-4-thieno[2,3-b]pyridin-3-yl-3,5-pyridinedicarboxylic acid, diethyl ester] gave an IC50 of 871 nM.

Regarding `CCOC(=O)C1=C(C)NC(C)=C(C(=O)OCC)C1c1csc2c(C)nccc12` [Example 14, 1,4-Dihydro-2,6-dimethyl-4-(7-methylthieno[2,3-c]pyridin-3-yl)-3,5-pyridinedicarboxylic acid, diethyl ester], half-maximal inhibition (IC50) required 3160 nM.

In the case of `CCOC(=O)C1=C(C)NC(C)=C(C(=O)OCC)C1c1c(SC)sc2ccccc12` [Example 15, 1,4-Dihydro-2,6-dimethyl-4-[2-(methylthio)benzo[b]thien-3-yl]-3,5-pyridinedicarboxylic acid, diethyl ester], half-maximal inhibition (IC50) was put at 2750 nM.

`CCOC(=O)C1=C(C)NC(C)=C(C(=O)OCC)C1c1c(C)sc2ccccc12` [Example 16, 1,4-Dihydro-2,6-dimethyl-4-(2-methylbenzo[b]thien-3-yl)-3,5-pyridinedicarboxylic acid, diethyl ester] gave an IC50 of 407 nM.

The compound `CCOC(=O)C1=C(C)NC(C)=C(C(=O)OC(C)C)C1c1csc2ccncc12` (stereo not shown) [Example 17, 1,4-Dihydro-2,6-dimethyl-4-thieno[3,2-c]pyridin-3-yl-3,5-pyridinedicarboxylic acid, 3-ethyl 5-isopropyl ester] showed an IC50 of 83.2 nM.

Regarding `CCOC(=O)C1=C(C)NC(C)=C(C(=O)OCCN(C)Cc2ccccc2)C1c1csc2ccccc12` (stereo not shown) [Example 18, 4-Benzo[b]thien-3-yl-1,4-dihydro-2,6-dimethyl-3,5-pyridinedicarboxylic acid, 3-ethyl 5-(2-[methyl(phenylmethyl)amino]ethyl)ester], half-maximal inhibition (IC50) was put at 3470 nM.

As for `COC(=O)C1=C(C)NC(C)=C(C(=O)OC(C)C)C1c1csc2ccncc12` (stereo not shown) [Example 20, 1,4-Dihydro-2,6-dimethyl-4-thieno[3,2-c]pyridin-3-yl-3,5-pyridinedicarboxylic acid, 3-methyl 5-isopropyl ester], the midpoint of inhibition, the IC50, lay at 15.8 nM.

As for `COCCOC(=O)C1=C(C)NC(C)=C(C(=O)OC)C1c1csc2ccncc12` (stereo not shown) [Example 21, 1,4-Dihydro-2,6-dimethyl-4-thieno[3,2-c]pyridine-3-yl-3,5-pyridinedicarboxylic acid, 3-methyl 5-(2-methoxyethyl)ester], the IC50 is 61.7 nM.

Turning to `CCOC(=O)C1=C(C)NC(C)=C(C(=O)OCC)C1c1csc2ccc(Br)cc12` [Example 22, 4-(5-Bromobenzo[b]thien-3-yl)-1,4-dihydro-2,6-dimethyl-3,5-pyridinedicarboxlic acid, diethyl ester], it took 39800 nM to reach half-maximal inhibition (IC50).

The compound `CCOC(=O)C1=C(C)NC(C)=C(C(=O)OCC)C1c1c(Br)sc2ccccc12` [Example 23, 4-(2-Bromobenzo[b]thien-3-yl)-1,4-dihydro-2,6-dimethyl-3,5-pyridinedicarboxylic acid, diethyl ester] showed an IC50 of 7080 nM.

The compound `CCOC(=O)C1=C(C)NC(C)=C(C(=O)OCC)C1c1nccc2ccsc12` [Example 24, 1,4-Dihydro-2,6-dimethyl-4-thieno[2,3-c]pyridin-7-yl-3,5-pyridinedicarboxylic acid, diethyl ester] gave an IC50 of 83.2 nM.

Regarding `CCOC(=O)C1=C(C)NC(C)=C(C(=O)OCC)C1c1csc2c([N+](=O)[O-])cccc12` [Example 25, 1,4-Dihydro-2,6-dimethyl-4-(7-nitrobenzo[b]thien-3-yl)-3,5-pyridinedicarboxylic acid, diethyl ester], inhibition was half-maximal at 1700 nM (IC50).

In turn, `CCOC(=O)C1=C(C)NC(C)=C(C(=O)OCC)C1c1csc2ccc([N+](=O)[O-])cc12` [Example 26, 1,4-Dihydro-2,6-dimethyl-4-(5-nitrobenzo[b]thien-3-yl)-3,5-pyridinedicarboxylic acid, diethyl ester] showed an IC50 of 229 nM.

Compound `CCOC(=O)C1=C(C)NC(C)=C(C(=O)OCC)C1c1csc2cc([N+](=O)[O-])ccc12` [Example 27, 1,4-Dihydro-2,6-dimethyl-4-(6-nitrobenzo[b]thien-3-yl)-3,5-pyridinedicarboxylic acid, diethyl ester] showed an IC50 of 204 nM.

`CCOC(=O)C1=C(C)NC(C)=C(C(=O)OCC)C1c1csc2cccc([N+](=O)[O-])c12` [Example 28, 1,4-Dihydro-2,6-dimethyl-4-(4-nitrobenzo[b]thien-3-yl)-3,5-pyridinecarboxylic acid, diethyl ester] had an IC50 of 155 nM.

The compound `CCOC(=O)C1=C(C)NC(C)=C(C(=O)OCC)C1c1csc2cc(N)ccc12` [Example 29, 4-(6-Aminobenzo[b]thien-3-yl)-1,4-dihydro-2,6-dimethyl-3,5-pyridinecarboxylic acid, diethyl ester] gave an IC50 of 1350 nM.

In the case of `COC(=O)C1=C(C)NC(C)=C(C(=O)OCCN(C)Cc2ccccc2)C1c1csc2ccncc12` (stereo not shown) [Example 31, 1,4-Dihydro-2,6-dimethyl-4-thieno[3,2-c]pyridin-3-yl-3,5-pyridine dicarboxylic acid, 3-methyl 5-(2-[methyl(phenylmethyl)amino]ethyl)ester], the IC50 was 126 nM.

In turn, `CC1=C(C(=O)OCCN(C)Cc2ccccc2)C(c2csc3ccccc23)C(C(=O)OCCN(C)Cc2ccccc2)=C(C)N1` [Example 32] had an IC50 of 21400 nM.

Still in this assay, the particulars now being: coronary artery rings contracted with 50 mM KCl, 37° C.; IC50 = 50% relaxation; mean values, probit analysis.
For the compound `CCOC(=O)C1=C(C)NC(C)=C(C(=O)OCC)C1c1csc2ccncc12` [Example 5, 1,4-Dihydro-2,6-dimethyl-4-thieno[3,2-c]pyridin-3-yl-3,5-pyridinedicarboxylic acid, diethyl ester], the “-log IC50” value came out at 7.55.

On to `CCOC(=O)C1=C(C)NC(C)=C(C(=O)OCCOC)C1c1csc2cccnc12` (stereo not shown) [Example 19, 1,4-Dihydro-2,6-dimethyl-4-thieno[3,2-]pyridin-3-yl-3,5-pyridinedicarboxylic acid, 3-ethyl 5-(2-methoxyethyl)ester], for which the “-log IC50” value was found to be 7.0.

What is called IC50 is the concentration that gives 50% inhibition. Low values mean higher potency, high ones lower potency.
